# Test results from patent US9302999B2, “Substituted triazoles as herbicides” (E. I. DU PONT DE NEMOURS AND COMPANY, priority 2012, dated 2016).
# Like-named read-outs stand apart in the source and are kept apart here.
# Experiments:
# Type in all cases: in vivo
# [1] = system: morningglory (Ipomoea spp.); test: Test A pre-/postemergence: morningglory; settings: for pest or weed control at 125 g/ha / pest or weed control at 500 g/ha: Ipomoea, 240 h
# In short: (§1)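 Injury was scored visually on a 0 (no effect) to 100 (complete control) scale versus untreated controls roughly ten days after treatment in the greenhouse. Compounds, formulated in surfactant-containing non-phytotoxic solvent, went on as soil-directed preemergence spray or postemergence to one- to two-leaf plants 2–10 cm tall.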
# corn (Zea mays) = test: Test A pre-/postemergence: corn; settings: for plant injury at 125 g/ha / plant injury at 500 g/ha / Corn plant response rating (crop injury, 0 = no effect, 100 = complete kill) at 125 g/ha / Corn plant response rating (crop injury, 0 = no effect, 100 = complete kill) at 500 g/ha: Zea mays, 240 h; for plant injury at 125 g/ha / plant injury at 500 g/ha: post-emergence, read-out: Corn plant response rating; for plant injury at 500 g/ha: visual rating on 0 to 100 scale (0 no effect, 100 complete control), approximately ten days; for Corn plant response rating (crop injury, 0 = no effect, 100 = complete kill) at 125 g/ha / Corn plant response rating (crop injury, 0 = no effect, 100 = complete kill) at 500 g/ha: pre-emergence
# In short: as §1
# [2] = system: barnyardgrass (Echinochloa crus-galli); test: Test A pre-/postemergence: barnyardgrass; settings: for pest or weed control at 125 g/ha / pest or weed control at 500 g/ha: Echinochloa crus-galli, 240 h
# In short: as §1
# [3] = system: large crabgrass (Digitaria sanguinalis); test: Test C pre-/postemergence: large crabgrass; settings: Preemergence
# From the text: (§2) Seeds of plant species selected from blackgrass (Alopecurus myosuroides), bromegrass, downy (downy bromegrass, Bromus tectorum), foxtail, green (green foxtail, Setaria viridis), ryegrass, Italian (Italian ryegrass, Lolium multiflorum), winter wheat (Triticum aestivum), wild oat (Avena fatua), galium (catchweed bedstraw, Galium aparine), bermudagrass (Cynodon dactylon), surinam grass (Brachiaria decumbens), cocklebur (common cocklebur, Xanthium strumarium), corn (Zea mays), large crabgrass (Digitaria sanguinalis), woolly cupgrass (Eriochloa villosa), foxtail, giant (giant foxtail, Setaria faberii), goosegrass (Eleusine indica), johnsongrass (Sorghum halepense), kochia (Kochia scoparia), lambsquarters (Chenopodium album), morningglory (Ipomoea coccinea), nightshade (eastern black nightshade, Solanum ptycanthum), nutsedge, yellow (yellow nutsedge, Cyperus esculentus), pigweed (Amaranthus retroflexus), ragweed (common ragweed, Ambrosia elation), soybean (Glycine max), common (oilseed) sunflower (Helianthus annuus), Russian thistle (Salsola kali) and velvetleaf (Abutilon theophrasti) were planted into a blend of loam soil and sand and treated preemergence with test chemicals formulated in a non-phytotoxic solvent mixture which included a surfactant.
# (§3) At the same time, plants selected from these crop and weed species and also barley (winter barley, Hordeum vulgare), canarygrass (Phalaris minor), chickweed (common chickweed, Stellaria media) windgrass (Apera spica-venti) and deadnettle (henbit deadnettle, Lamium amplexicaule) were planted in pots containing Redi-Earth® planting medium (Scotts Company, 14111 Scottslawn Road, Marysville, Ohio 43041) comprising spaghnum peat moss, vermiculite, wetting agent and starter nutrients and treated with postemergence applications of test chemicals formulated in the same manner. Plants ranged in height from 2 to 18 cm (1- to 4-leaf stage) for postemergence treatments.
# (§4) Treated plants and controls were maintained in a greenhouse for 13 to 15 days, after which time all species were compared to controls and visually evaluated. Plant response ratings, summarized in Table C, are based on a scale of 0 to 100 where 0 is no effect and 100 is complete control. A dash (-) response means no test result.
# [4] = system: pigweed (Amaranthus retroflexus); test: Test C pre-/postemergence: pigweed; settings: Preemergence
# From the text: as §2, §3, §4
# [5] = system: johnsongrass (Sorghum halepense); test: Test C pre-/postemergence: johnsongrass; settings: Preemergence
# From the text: as §2, §3, §4
# [6] = system: ryegrass, Italian (Italian ryegrass, Lolium multiflorum); test: Test C pre-/postemergence: ryegrass, Italian; settings: Preemergence
# From the text: as §2, §3, §4
# [7] = system: nutsedge, yellow (yellow nutsedge, Cyperus esculentus); test: Test C pre-/postemergence: nutsedge, yellow; settings: Preemergence
# From the text: as §2, §3, §4
# [8] = system: winter wheat (Triticum aestivum); test: Test C pre-/postemergence: winter wheat; settings: Preemergence
# From the text: as §2, §3, §4
# [9] = system: galium (catchweed bedstraw, Galium aparine); test: Test C pre-/postemergence: galium; settings: Preemergence
# From the text: as §2, §3, §4
# [10] = post-emergence, Postemergence, 125 g ai/ha, 0 to 100 scale, 0 is no effect, 100 is complete control, read-out: Morningglory plant response rating
# [11] = post-emergence, Postemergence, 500 g ai/ha, visual rating on 0 to 100 scale (0 no effect, 100 complete control), approximately ten days, read-out: Morningglory plant response rating
# [12] = pre-emergence, Preemergence, 125 g ai/ha, 0 to 100 scale (0 no effect, 100 complete control), read-out: Plant response rating, Morningglory
# [13] = pre-emergence, Preemergence, 500 g ai/ha, 0 to 100 scale, 0 is no effect, 100 is complete control, read-out: Plant response rating, Morningglory
# [14] = Postemergence, 125 g ai/ha, 0 to 100 scale, 0 is no effect, 100 is complete control
# [15] = Preemergence, 125 g ai/ha, 0 to 100 scale (0 no effect, 100 complete control)
# [16] = Preemergence, 500 g ai/ha, 0 to 100 scale, 0 is no effect, 100 is complete control
# [17] = post-emergence, Postemergence, 125 g ai/ha, 0 to 100 scale, 0 is no effect, 100 is complete control, read-out: Barnyardgrass plant response rating
# [18] = post-emergence, Postemergence, 500 g ai/ha, visual rating on 0 to 100 scale (0 no effect, 100 complete control), approximately ten days, read-out: Barnyardgrass plant response rating
# [19] = pre-emergence, Preemergence, 125 g ai/ha, 0 to 100 scale (0 no effect, 100 complete control), read-out: Plant response rating, Barnyardgrass
# [20] = pre-emergence, Preemergence, 500 g ai/ha, 0 to 100 scale, 0 is no effect, 100 is complete control, read-out: Plant response rating, Barnyardgrass
# [21] = pre-emergence, Preemergence, 125 g ai/ha, 0 to 100 scale where 0 is no effect and 100 is complete control, read-out: Plant response rating, Morningglory
# [22] = pre-emergence, Preemergence, 500 g ai/ha, 0 to 100 scale (0 no effect, 100 complete control), read-out: Plant response rating, Morningglory
# [23] = Preemergence, 125 g ai/ha, 0 to 100 scale where 0 is no effect and 100 is complete control
# [24] = Preemergence, 500 g ai/ha, 0 to 100 scale (0 no effect, 100 complete control)
# [25] = pre-emergence, Preemergence, 125 g ai/ha, 0 to 100 scale where 0 is no effect and 100 is complete control, read-out: Plant response rating, Barnyardgrass
# [26] = pre-emergence, Preemergence, 500 g ai/ha, 0 to 100 scale (0 no effect, 100 complete control), read-out: Plant response rating, Barnyardgrass
# [27] = 31 g ai/ha, scale of 0 to 100, 0 is no effect, 100 is complete control
# [28] = 62 g ai/ha, scale of 0 to 100, 0 is no effect, 100 is complete control
# [29] = 125 g ai/ha, scale 0 to 100, 0 no effect, 100 complete control
# [30] = 250 g ai/ha, scale 0 to 100, 0 no effect, 100 complete control
# [31] = Postemergence, 500 g ai/ha, 0 to 100 scale, 0 is no effect, 100 is complete control
compound,measurement,setting,value
"Cc1nn(-c2ccc(C(F)(F)F)cc2)nc1Oc1csc(C(F)(F)F)c1 [Compound 1, 4-methyl-2-[4-(trifluoromethyl)phenyl]-5-[[5-(trifluoromethyl)-3-thienyl]oxy]-2H-1,2,3-triazole]",pest or weed control at 125 g/ha,[1]; [10],50%
same,pest or weed control at 500 g/ha,[1]; [11],100%
same,pest or weed control at 125 g/ha,[1]; [12],0%
same,pest or weed control at 500 g/ha,[1]; [13],20%
same,plant injury at 125 g/ha,corn (Zea mays); [14],20%
same,plant injury at 500 g/ha,"corn (Zea mays); Postemergence, 500 g ai/ha",20%
same,"Corn plant response rating (crop injury, 0 = no effect, 100 = complete kill) at 125 g/ha",corn (Zea mays); [15],0%
same,"Corn plant response rating (crop injury, 0 = no effect, 100 = complete kill) at 500 g/ha",corn (Zea mays); [16],0%
same,pest or weed control at 125 g/ha,[2]; [17],0%
same,pest or weed control at 500 g/ha,[2]; [18],20%
same,pest or weed control at 125 g/ha,[2]; [19],20%
same,pest or weed control at 500 g/ha,[2]; [20],50%
"Cc1nn(-c2ccc(F)cc2F)nc1Cc1ccnc(C(F)(F)F)c1 [Compound 54, 4-[[2-(2,4-difluorophenyl)-5-methyl-2H-1,2,3-triazol-4-yl]methyl]-2-(trifluoromethyl)pyridine]",pest or weed control at 125 g/ha,[1]; [12],60%
same,pest or weed control at 500 g/ha,[1]; [13],90%
same,plant injury at 125 g/ha,corn (Zea mays); [14],30%
same,plant injury at 500 g/ha,"corn (Zea mays); Postemergence, 500 g ai/ha",60%
same,"Corn plant response rating (crop injury, 0 = no effect, 100 = complete kill) at 125 g/ha",corn (Zea mays); [15],10%
same,"Corn plant response rating (crop injury, 0 = no effect, 100 = complete kill) at 500 g/ha",corn (Zea mays); [16],40%
same,pest or weed control at 125 g/ha,[2]; [17],70%
same,pest or weed control at 500 g/ha,[2]; [18],90%
same,pest or weed control at 125 g/ha,[2]; [19],80%
same,pest or weed control at 500 g/ha,[2]; [20],100%
"COCc1nn(-c2ccc(C(F)(F)F)cc2)nc1Oc1cccc(OC(F)(F)F)c1 [Compound 115, 4-(methoxymethyl)-5-[3-(trifluoromethoxy)phenoxy]-2-[4-(trifluoromethyl)phenyl]-2H-1,2,3-triazole]",pest or weed control at 125 g/ha,[1]; [10],90%
same,pest or weed control at 500 g/ha,[1]; [11],100%
same,pest or weed control at 125 g/ha,[1]; [21],0%
same,pest or weed control at 500 g/ha,[1]; [22],10%
same,plant injury at 125 g/ha,corn (Zea mays); [14],10%
same,plant injury at 500 g/ha,"corn (Zea mays); Postemergence, 500 g ai/ha",30%
same,"Corn plant response rating (crop injury, 0 = no effect, 100 = complete kill) at 125 g/ha",corn (Zea mays); [23],0%
same,"Corn plant response rating (crop injury, 0 = no effect, 100 = complete kill) at 500 g/ha",corn (Zea mays); [24],10%
same,pest or weed control at 125 g/ha,[2]; [17],20%
same,pest or weed control at 500 g/ha,[2]; [18],30%
same,pest or weed control at 125 g/ha,[2]; [25],30%
same,pest or weed control at 500 g/ha,[2]; [26],60%
"FCc1nn(-c2ccc(C(F)(F)F)cc2)nc1Oc1cccc(OC(F)(F)F)c1 [Compound 116, 4-(fluoromethyl)-5-[3-(trifluoromethoxy)phenoxy]-2-[4-(trifluoromethyl)phenyl]-2H-1,2,3-triazole]",pest or weed control at 125 g/ha,[1]; [10],70%
same,pest or weed control at 500 g/ha,[1]; [11],100%
same,pest or weed control at 125 g/ha,[1]; [21],0%
same,pest or weed control at 500 g/ha,[1]; [22],10%
same,plant injury at 125 g/ha,corn (Zea mays); [14],20%
same,plant injury at 500 g/ha,"corn (Zea mays); Postemergence, 500 g ai/ha",30%
same,"Corn plant response rating (crop injury, 0 = no effect, 100 = complete kill) at 125 g/ha",corn (Zea mays); [23],0%
same,"Corn plant response rating (crop injury, 0 = no effect, 100 = complete kill) at 500 g/ha",corn (Zea mays); [24],10%
same,pest or weed control at 125 g/ha,[2]; [17],10%
same,pest or weed control at 500 g/ha,[2]; [18],20%
same,pest or weed control at 125 g/ha,[2]; [25],0%
same,pest or weed control at 500 g/ha,[2]; [26],30%
CCOCc1nn(-c2ccc(F)cc2)nc1Oc1ccnc(C(F)(F)F)c1 [Compound 163],"Plant response rating, Crabgrass, Large",[3]; [27],65
same,"Plant response rating, Crabgrass, Large",[3]; [28],100
same,"Plant response rating, Crabgrass, Large",[3]; [29],100
same,"Plant response rating, Crabgrass, Large",[3]; [30],100
same,"Plant response rating, Pigweed",[4]; [27],95
same,"Plant response rating, Pigweed",[4]; [28],98
same,"Plant response rating, Pigweed",[4]; [29],100
same,"Plant response rating, Pigweed",[4]; [30],100
same,"Plant response rating, Morningglory",[1]; [14],30
same,Morningglory plant response rating,[1]; [31],80
same,"Plant response rating, Morningglory",[1]; [23],10
same,"Plant response rating, Morningglory",[1]; [24],30
same,"Plant response rating, Johnsongrass",[5]; [27],30
same,"Plant response rating, Johnsongrass",[5]; [28],35
same,"Plant response rating, Johnsongrass",[5]; [29],60
same,"Plant response rating, Johnsongrass",[5]; [30],60
same,"Plant response rating, Ryegrass, Italian",[6]; [27],10
same,"Plant response rating, Ryegrass, Italian",[6]; [28],45
same,"Plant response rating, Ryegrass, Italian",[6]; [29],65
same,"Plant response rating, Ryegrass, Italian",[6]; [30],85
same,"Plant response rating, Nutsedge, Yellow",[7]; [27],0
same,"Plant response rating, Nutsedge, Yellow",[7]; [28],0
same,"Plant response rating, Nutsedge, Yellow",[7]; [29],20
same,"Plant response rating, Nutsedge, Yellow",[7]; [30],75
same,"Plant response rating, Corn",corn (Zea mays); [14],20
same,Corn plant response rating,corn (Zea mays); [31],30
same,"Plant response rating, Corn",corn (Zea mays); [23],0
same,"Plant response rating, Corn",corn (Zea mays); [24],10
same,"Plant response rating, Barnyardgrass",[2]; [14],70
same,Barnyardgrass plant response rating,[2]; [31],100
same,"Plant response rating, Barnyardgrass",[2]; [23],90
same,"Plant response rating, Barnyardgrass",[2]; [24],100
same,"Plant response rating, Wheat",[8]; [28],0
same,"Plant response rating, Wheat",[8]; [29],0
same,"Plant response rating, Wheat",[8]; [30],0
same,"Plant response rating, Galium",[9]; [27],0
same,"Plant response rating, Galium",[9]; [28],5
same,"Plant response rating, Galium",[9]; [29],5
same,"Plant response rating, Galium",[9]; [30],75
